Experimental data taken from US11618743B2, “Herbicidal compounds” (SYNGENTA PARTICIPATIONS AG, priority 2017, dated 2023).
Where two headings read alike, the source gives them in different places.

Key:
Type in all cases: in vivo
Setaria faberi (SETFA) [1] = assay: Post-emergence efficacy, Method A; conditions: Application rate 500 g/Ha; evaluated after 13 days; 100=total damage to plant, 0=no damage
Procedure, shortened: (§1)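 Post-emergence spray on 14-day-old potted plants; glasshouse 24/16 °C, 14 h light, 65% RH, watered twice daily. Spray: IF50/acetone formulation diluted with 0.25% or 1% Empicol ESC70 + 1% ammonium sulphate. Visual damage at 13 days, 0 = none, 100 = total.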

[2] = system: Echinochloa crus-galli (ECHCG); assay: Post-emergence efficacy, Method A; conditions: Application rate 500 g/Ha; evaluated after 13 days; 100=total damage to plant, 0=no damage
Procedure, shortened: as §1

[3] = system: Digitaria sanguinalis (DIGSA); assay: Post-emergence efficacy, Method A; conditions: Application rate 500 g/Ha; evaluated after 13 days; 100=total damage to plant, 0=no damage
Procedure, shortened: as §1

Setaria faberi (SETFA) [4] = assay: Post-emergence efficacy, Method B; conditions: 360 h, evaluated after 15 days, read-out: Control of weed species after post-emergence application, SETFA (100=total damage to plant; 0=no damage to plant); for pest or weed control at 500 g/ha: Application Rate 500 g/Ha; for pest or weed control at 1000 g/ha: Application Rate 1000 g/Ha
Experimental: (§2) An “instant formulation”, known as the IF50, containing 50 g/L of the “technical” (i.e. unformulated) active ingredient was prepared by dissolving the active ingredient in a mixture of organic solvents and emulsifier, details of which are provided in the table. This IF50 was then mixed with a small, variable amount of acetone to aid dissolution, before addition of an aqueous solution of 1% v/v ammonium sulphate+1% v/v Empicol ESC70 (Sodium lauryl ether sulphate) adjuvant, as the aqueous diluent, to form an aqueous spray solution which contains a predetermined concentration of the active ingredient (which varies depending on the application rate of the active ingredient to the plants).
(§3) Composition of the mixture of organic solvents and emulsifier used as a base for the instant formulation.
(§4) This aqueous spray solution was then sprayed onto the plants, after about 12 days' cultivation. The plants were grown from seeds sown in standard soil, placed in a glasshouse under controlled conditions (at 24/18° C. or 20/16° C., day/night; 16 hours light; 65% humidity). After spray application the plants were then grown on in a glasshouse under the same conditions and watered twice daily. After 15 days the test was evaluated (100=total damage to plant; 0=no damage to plant).
(§5) Ipomoea hederacea (IPOHE), Euphorbia heterophylla (EPHHL), Chenopodium album (CHEAL), 20 Amaranthus retroflexus (AMARE), Lolium perenne (LOLPE), Digitaria sanguinalis (DIGSA), Eleusine indica (ELEIN), Echinochloa crus-galli (ECHCG), Setaria faberi (SETFA)

[5] = system: Echinochloa crus-galli (ECHCG); assay: Post-emergence efficacy, Method B; conditions: 360 h, read-out: Control of weed species after post-emergence application, ECHCG (100=total damage to plant; 0=no damage to plant)
Experimental: as §2, §3, §4, §5

Eleusine indica (ELEIN) = assay: Post-emergence efficacy, Method B; conditions: 360 h, read-out: Control of weed species after post-emergence application, ELEIN (100=total damage to plant; 0=no damage to plant)
Experimental: as §2, §3, §4, §5

[6] = system: Euphorbia heterophylla (EPHHL); assay: Post-emergence efficacy, Method B; conditions: 360 h, evaluated after 15 days, read-out: Control of weed species after post-emergence application, EPHHL (100=total damage to plant; 0=no damage to plant); for pest or weed control at 500 g/ha: Application Rate 500 g/Ha; for pest or weed control at 1000 g/ha: Application Rate 1000 g/Ha
Experimental: as §2, §3, §4, §5

[7] = system: Chenopodium album (CHEAL); assay: Post-emergence efficacy, Method B; conditions: 360 h, read-out: Control of weed species after post-emergence application, CHEAL (100=total damage to plant; 0=no damage to plant)
Experimental: as §2, §3, §4, §5

Lolium perenne (LOLPE) [8] = assay: Post-emergence efficacy, Method B; conditions: 360 h, read-out: Control of weed species after post-emergence application, LOLPE (100=total damage to plant; 0=no damage to plant)
Experimental: as §2, §3, §4, §5

[9] = system: Ipomoea hederacea (IPOHE); assay: Post-emergence efficacy, Method B; conditions: 360 h, read-out: Control of weed species after post-emergence application, IPOHE (100=total damage to plant; 0=no damage to plant)
Experimental: as §2, §3, §4, §5

[10] = system: Digitaria sanguinalis (DIGSA); assay: Post-emergence efficacy, Method B; conditions: 360 h, evaluated after 15 days, read-out: Control of weed species after post-emergence application, DIGSA (100=total damage to plant; 0=no damage to plant); for pest or weed control at 500 g/ha: Application Rate 500 g/Ha; for pest or weed control at 1000 g/ha: Application Rate 1000 g/Ha
Experimental: as §2, §3, §4, §5

[11] = system: Amaranthus retroflexus (AMARE); assay: Post-emergence efficacy, Method B; conditions: 360 h, evaluated after 15 days, read-out: Control of weed species after post-emergence application, AMARE (100=total damage to plant; 0=no damage to plant); for pest or weed control at 500 g/ha: Application Rate 500 g/Ha; for pest or weed control at 1000 g/ha: Application Rate 1000 g/Ha
Experimental: as §2, §3, §4, §5

[12] = system: Echinochloa crus-galli (ECHCG); assay: Post-emergence efficacy, Method C; conditions: Application Rate 400 g/Ha, evaluated at 21 days
Experimental: (§6) An “instant formulation”, known as the IF50, containing 50 g/L of the “technical” (i.e. unformulated) active ingredient was prepared by dissolving the active ingredient in a mixture of organic solvents and emulsifier, details of which are provided in the table. This IF50 was then mixed with a small, variable amount of acetone to aid dissolution, before addition of a 1% v/v aqueous solution of the adjuvant Empicol ESC70 3EO (Sodium lauryl ether sulphate) and 1% v/v Ammonium sulphate, as the aqueous diluent, to form an aqueous spray solution which contains a predetermined concentration of the active ingredient (which varies depending on the application rate of the active ingredient to the plants).
as §3
as §4, with “plants” for “plants,”, “21” for “12”, “24/18°” for “24/18° C. or 20/16°”, “14” for “16”, “The” for “After 15 days the”, “evaluated at 21 days” for “evaluated”
(§7) Ipomoea hederacea (IPOHE), Amaranthus palmeri (AMAPA), Lolium perenne (LOLPE), Eleusine indica (ELEIN), Echinochloa crus-galli (ECHCG), Conyza canadensis (ERICA)

[13] = system: Amaranthus palmeri (AMAPA); assay: Post-emergence efficacy, Method C; conditions: Application Rate 400 g/Ha, evaluated at 21 days
Experimental: as §6, §3
as §4, with “plants” for “plants,”, “21” for “12”, “24/18°” for “24/18° C. or 20/16°”, “14” for “16”, “The” for “After 15 days the”, “evaluated at 21 days” for “evaluated”
as §7

Lolium perenne (LOLPE) [14] = assay: Post-emergence efficacy, Method C; conditions: Application Rate 400 g/Ha, evaluated at 21 days
Experimental: as §6, §3
as §4, with “plants” for “plants,”, “21” for “12”, “24/18°” for “24/18° C. or 20/16°”, “14” for “16”, “The” for “After 15 days the”, “evaluated at 21 days” for “evaluated”
as §7

[15] = system: Ipomoea hederacea (IPOHE); assay: Post-emergence efficacy, Method C; conditions: Application Rate 400 g/Ha, evaluated at 21 days
Experimental: as §6, §3
as §4, with “plants” for “plants,”, “21” for “12”, “24/18°” for “24/18° C. or 20/16°”, “14” for “16”, “The” for “After 15 days the”, “evaluated at 21 days” for “evaluated”
as §7

[16] = system: Conyza canadensis (ERICA); assay: Post-emergence efficacy, Method C; conditions: Application Rate 400 g/Ha, evaluated at 21 days
Experimental: as §6, §3
as §4, with “plants” for “plants,”, “21” for “12”, “24/18°” for “24/18° C. or 20/16°”, “14” for “16”, “The” for “After 15 days the”, “evaluated at 21 days” for “evaluated”
as §7

[17] = Method B, Application Rate 500 g/Ha, evaluated after 15 days
[18] = Method B, Application Rate 1000 g/Ha, evaluated after 15 days

Cl.N[C@@H](CCC[n+]1ccc(-c2ncccn2)cn1)C(=O)O.[Cl-] [Compound A211, [(1S)-1-carboxy-4-(4-pyrimidin-2-ylpyridazin-1-ium-1-yl)butyl]ammonium Dichloride]
Control of weed species after post-emergence application, SETFA (Setaria faberi (SETFA) [1]): 100
Control of weed species after post-emergence application, ECHCG [2]: 100
Control of weed species after post-emergence application, DIGSA [3]: 100
pest or weed control at 500 g/ha (Setaria faberi (SETFA) [4]): 100%
pest or weed control at 500 g/ha [5]: 100%
pest or weed control at 500 g/ha (Eleusine indica (ELEIN)): 100%
pest or weed control at 500 g/ha [6]: 80%
pest or weed control at 500 g/ha [7]: 90%
pest or weed control at 500 g/ha (Lolium perenne (LOLPE) [8]): 10%
pest or weed control at 500 g/ha [9]: 100%
pest or weed control at 500 g/ha [10]: 100%
pest or weed control at 500 g/ha [11]: 100%

Cl.O=S(=O)([O-])CC[n+]1ccc(-c2ccncc2)cn1 [Compound A27]
Control of weed species after post-emergence application, ECHCG (100=total damage to plant; 0=no damage to plant) [12]: 43
Control of weed species after post-emergence application, AMAPA (100=total damage to plant; 0=no damage to plant) [13]: 77
Control of weed species after post-emergence application, LOLPE (100=total damage to plant; 0=no damage to plant) (Lolium perenne (LOLPE) [14]): 68
Control of weed species after post-emergence application, IPOHE (100=total damage to plant; 0=no damage to plant) [15]: 90
Control of weed species after post-emergence application, ERICA (100=total damage to plant; 0=no damage to plant) [16]: 65

O=S(=O)([O-])CC[n+]1ccc(-c2ccncn2)cn1 [Compound A4]
pest or weed control at 500 g/ha (Setaria faberi (SETFA) [4]): 40%
pest or weed control at 500 g/ha [5, 17]: 70%
pest or weed control at 500 g/ha (Eleusine indica (ELEIN); [17]): 80%
pest or weed control at 500 g/ha [6]: 100%
pest or weed control at 500 g/ha [7, 17]: 80%
pest or weed control at 500 g/ha (Lolium perenne (LOLPE) [8]; [17]): 90%
pest or weed control at 500 g/ha [9, 17]: 100%
pest or weed control at 500 g/ha [10]: 100%
pest or weed control at 500 g/ha [11]: 100%

Nc1ccnc(-c2cc[n+](CCC(=O)O)nc2)n1 [Compound A41]
pest or weed control at 1000 g/ha (Setaria faberi (SETFA) [4]): 100%
pest or weed control at 1000 g/ha [5]: 100%
pest or weed control at 1000 g/ha (Eleusine indica (ELEIN)): 50%
pest or weed control at 1000 g/ha [6]: 100%
pest or weed control at 1000 g/ha [7]: 90%
pest or weed control at 1000 g/ha (Lolium perenne (LOLPE) [8]): 60%
pest or weed control at 1000 g/ha [9]: 20%
pest or weed control at 1000 g/ha [10]: 100%
pest or weed control at 1000 g/ha [11]: 100%

O=C(O)CC[n+]1ccc(-c2ccncn2)cn1 [Compound A28]
pest or weed control at 1000 g/ha (Setaria faberi (SETFA) [4]): 40%
pest or weed control at 1000 g/ha [5]: 100%
pest or weed control at 1000 g/ha (Eleusine indica (ELEIN)): 100%
pest or weed control at 1000 g/ha [6]: 100%
pest or weed control at 1000 g/ha [7]: 90%
pest or weed control at 1000 g/ha (Lolium perenne (LOLPE) [8]): 70%
pest or weed control at 1000 g/ha [9]: 100%
pest or weed control at 1000 g/ha [10]: 100%
pest or weed control at 1000 g/ha [11]: 100%

O=C([O-])CCC[n+]1ccc(-c2ncccn2)cn1 [Compound A220]
pest or weed control at 1000 g/ha (Setaria faberi (SETFA) [4]): 30%
pest or weed control at 1000 g/ha [5, 18]: 90%
pest or weed control at 1000 g/ha (Eleusine indica (ELEIN); [18]): 100%
pest or weed control at 1000 g/ha [6]: 100%
pest or weed control at 1000 g/ha [7, 18]: 90%
pest or weed control at 1000 g/ha (Lolium perenne (LOLPE) [8]; [18]): 90%
pest or weed control at 1000 g/ha [9, 18]: 30%
pest or weed control at 1000 g/ha [10]: 100%
pest or weed control at 1000 g/ha [11]: 100%

O=C(O)CC[n+]1ccc(-c2cccnn2)cn1 [Compound A138, 3-(4-pyridazin-3-ylpyridazin-1-ium-1-yl)propanoic acid chloride]
pest or weed control at 1000 g/ha (Setaria faberi (SETFA) [4]): 100%
pest or weed control at 1000 g/ha [5]: 100%
pest or weed control at 1000 g/ha (Eleusine indica (ELEIN)): 100%
pest or weed control at 1000 g/ha [6]: 100%
pest or weed control at 1000 g/ha [7]: 100%
pest or weed control at 1000 g/ha (Lolium perenne (LOLPE) [8]): 100%
pest or weed control at 1000 g/ha [9]: 40%
pest or weed control at 1000 g/ha [10]: 100%
pest or weed control at 1000 g/ha [11]: 100%

O=S(=O)([O-])C[n+]1ccc(-c2ncccn2)cn1 [Compound A3, (4-pyrimidin-2-ylpyridazin-1-ium-1-yl)methanesulfonate]
Control of weed species after post-emergence application, ECHCG (100=total damage to plant; 0=no damage to plant) [12]: 13
